TGI and GI50 data for 25 compounds are collected here from PubChem BioAssay (NCI).

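Growth conditions: 96-well plates. Treatment: test compound, 48 hours, 5 concentrations. Analysis: linear interpolation between bracketing concentrations; unreached endpoints set to highest concentration. Here, GI50 denotes the concentration required for 50% inhibition of growth. TGI: total growth inhibition.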

The first experiment deals with SK-MEL-2 melanoma. The experiment is described as follows: NCI tumour cell line growth inhibition, 48 h.
Take `O=P(c1ccccc1)(c1ccccc1)N1O[C@@H](c2ccccc2)C=C[C@H]1c1ccccc1`: the TGI amounted to 24.9 µM.

In the case of `CC(C)(C)NC(=O)/C(=C\Sc1ccccc1)c1ccc2c(c1)OCO2`, the TGI is 34.6 µM.

The compound `COC(=O)[C@]12CC[C@H]3CN(C(=O)OCc4ccccc4)[C@H]([C@H]31)[C@H](c1ccco1)N2S(=O)(=O)c1ccc(C)cc1` returned a TGI of 49.3 µM.

For `O=C1C[C@H](Sc2ccccc2)C2(OCCO2)[C@@H](Sc2ccccc2)C1`, the TGI was found to be 26.3 µM.

`CCCNC(=O)CCC(C)[C@H]1CCC2C3C(C[C@H](OC(C)=O)[C@@]21C)[C@@]1(C)CCC2(C[C@H]1C[C@H]3OC(C)=O)OOC1(CCC(C)CC1)OO2` (stereo not given in full): the TGI amounted to 52.9 µM.

As to `CCN(C(=S)N[C@@H](Cc1ccccc1)C(=O)N[C@@H](CC(C)C)C(=O)OC)c1ccccc1`, the TGI was over 100 µM.

As for `CCCn1c(CN(Cc2nc3ccccc3n2CCC)Cc2nc3ccccc3n2CCC)nc2ccccc21`, the TGI turned out to be 35.4 µM.

`COc1cc(NS(C)(=O)=O)ccc1N1Cc2cnc3ccc4[nH]c(C)cc1c4c23` registered a TGI of over 100 µM.

Compound `CC12CC(=O)C3C(C(=O)C1)C32C` (stereo not given) registered a TGI of over 100 µM.

`CC(=O)N/N=C1\NC(=O)C[C@H]2[C@@H]3CC=C4C[C@@H](OC(C)=O)CC[C@]4(C)[C@H]3CC[C@]12C` had a TGI of over 100 µM.

`C=C[C@@H]1C(CO)=CCC2[C@H]1CCC1C(C)(C)C(=O)CC[C@]21C` (stereo not given in full) gave a TGI of over 100 µM.

In turn, `COc1ccc2cc3c4cc5c(cc4cc[n+]3cc2c1OC)OCO5` showed a TGI of over 57.8 µM.

In turn, `C/C(CC1C2CCCC1C2)=N\NC(N)=O` (stereo not given) gave a TGI of over 100 µM.

As to `O=c1oc(-c2ccc(O)c(O)c2)cc2cccc(O)c12`, the TGI came to 69.7 µM.

Consider `COc1cc2c(cc1-c1c(C)noc1C)cc(C)c(=O)n2Cc1ccccn1`, for which the GI50 is 2.46 µM and the TGI is over 100 µM.

For the compound `N#CC(C#N)=CNC(=S)c1ccncc1`, the TGI is over 100 µM.

`C1=CC2=CC=CC3c4nc5ccc6ccccc6c5nc4C(=C1)C23` (stereo not given) had a TGI of over 100 µM.

The compound `COc1ccc(C2(CC(C)O)SCCCS2)cc1` (stereo not given) displayed a TGI of over 100 µM.

Compound `Clc1ccc(-c2nn3c(-c4ccncc4)nnc3s2)cc1` displayed a TGI of over 100 µM.

In the case of `COc1ccc(C(OCC2OC(n3cc(C)c(=O)[nH]c3=O)CC2n2cc(Cn3cc(F)c(=O)[nH]c3=O)nn2)(c2ccccc2)c2ccccc2)cc1` (stereo not given), the TGI came out at 24.8 µM.

On to `O=[N+]([O-])/C(C(Cl)=C(Cl)Cl)=C(\Nc1cccc2cccnc12)SCc1ccccc1`, for which the TGI was determined as 41 µM.

In turn, `Oc1ccccc1/C=N/c1nc2cc3sc(/N=C/c4ccccc4O)nc3cc2s1` showed a TGI of over 100 µM.

With `CCCCC1c2c([nH]c3ccccc23)C2C(=O)N(c3ccc(OC)cc3)C(=O)C2C1CCC` (stereo not given), the TGI was over 10 µM.

Compound `CCN(CC)CCOc1ccc(N2C(=O)c3cc(OC)c(OC)cc3C2=O)cc1` had a TGI of over 100 µM.

Turning to `C(=N\NC1=NCCCN1)/c1ccc2ccccc2c1`, the TGI stood at 28.2 µM.

A further experiment has as its system OVCAR-4 ovarian. Kind of experiment: NCI tumour cell line growth inhibition, 48 h.
Regarding `O=P(c1ccccc1)(c1ccccc1)N1O[C@@H](c2ccccc2)C=C[C@H]1c1ccccc1`, the TGI turned out to be 10.6 µM.

Regarding `CC(C)(C)NC(=O)/C(=C\Sc1ccccc1)c1ccc2c(c1)OCO2`, the TGI was over 100 µM.

`COC(=O)[C@]12CC[C@H]3CN(C(=O)OCc4ccccc4)[C@H]([C@H]31)[C@H](c1ccco1)N2S(=O)(=O)c1ccc(C)cc1` returned a TGI of over 100 µM.

The compound `O=C1C[C@H](Sc2ccccc2)C2(OCCO2)[C@@H](Sc2ccccc2)C1` registered a TGI of 28.4 µM.

Compound `CCCNC(=O)CCC(C)[C@H]1CCC2C3C(C[C@H](OC(C)=O)[C@@]21C)[C@@]1(C)CCC2(C[C@H]1C[C@H]3OC(C)=O)OOC1(CCC(C)CC1)OO2` (stereo not given in full) showed a TGI of 33.9 µM.

Compound `CCN(C(=S)N[C@@H](Cc1ccccc1)C(=O)N[C@@H](CC(C)C)C(=O)OC)c1ccccc1` displayed a TGI of over 100 µM.

In turn, `CCCn1c(CN(Cc2nc3ccccc3n2CCC)Cc2nc3ccccc3n2CCC)nc2ccccc21` registered a TGI of 26.1 µM.

`COc1cc(NS(C)(=O)=O)ccc1N1Cc2cnc3ccc4[nH]c(C)cc1c4c23` gave a TGI of over 100 µM.

Compound `CC12CC(=O)C3C(C(=O)C1)C32C` (stereo not given) came in with a TGI of over 100 µM.

For the compound `CC(=O)N/N=C1\NC(=O)C[C@H]2[C@@H]3CC=C4C[C@@H](OC(C)=O)CC[C@]4(C)[C@H]3CC[C@]12C`, the TGI was found to be 25.7 µM.

The compound `C=C[C@@H]1C(CO)=CCC2[C@H]1CCC1C(C)(C)C(=O)CC[C@]21C` (stereo not given in full) came in with a TGI of over 100 µM.

For the compound `COc1ccc2cc3c4cc5c(cc4cc[n+]3cc2c1OC)OCO5`, the TGI is over 100 µM.

`C/C(CC1C2CCCC1C2)=N\NC(N)=O` (stereo not given) gave a TGI of over 100 µM.

As to `O=c1oc(-c2ccc(O)c(O)c2)cc2cccc(O)c12`, the TGI was 69.2 µM.

As for `COc1cc2c(cc1-c1c(C)noc1C)cc(C)c(=O)n2Cc1ccccn1`, the GI50 was 1.33 µM and the TGI is over 100 µM.

`N#CC(C#N)=CNC(=S)c1ccncc1` came in with a TGI of over 100 µM.

For `C1=CC2=CC=CC3c4nc5ccc6ccccc6c5nc4C(=C1)C23` (stereo not given), the TGI was over 100 µM.

The compound `COc1ccc(C2(CC(C)O)SCCCS2)cc1` (stereo not given) displayed a TGI of over 100 µM.

In the case of `Clc1ccc(-c2nn3c(-c4ccncc4)nnc3s2)cc1`, the TGI is over 100 µM.

Take `COc1ccc(C(OCC2OC(n3cc(C)c(=O)[nH]c3=O)CC2n2cc(Cn3cc(F)c(=O)[nH]c3=O)nn2)(c2ccccc2)c2ccccc2)cc1` (stereo not given): the TGI amounted to 47.3 µM.

The compound `O=[N+]([O-])/C(C(Cl)=C(Cl)Cl)=C(\Nc1cccc2cccnc12)SCc1ccccc1` had a TGI of 46 µM.

`Oc1ccccc1/C=N/c1nc2cc3sc(/N=C/c4ccccc4O)nc3cc2s1` displayed a TGI of over 100 µM.

The compound `CCCCC1c2c([nH]c3ccccc23)C2C(=O)N(c3ccc(OC)cc3)C(=O)C2C1CCC` (stereo not given) yielded a TGI of over 10 µM.

`CCN(CC)CCOc1ccc(N2C(=O)c3cc(OC)c(OC)cc3C2=O)cc1` had a TGI of over 100 µM.

The compound `C(=N\NC1=NCCCN1)/c1ccc2ccccc2c1` yielded a TGI of 39.3 µM.

A further experiment deals with OVCAR-3 ovarian. The experiment is described as follows: NCI tumour cell line growth inhibition, 48 h.
As for `O=P(c1ccccc1)(c1ccccc1)N1O[C@@H](c2ccccc2)C=C[C@H]1c1ccccc1`, the TGI turned out to be 27.8 µM.

`CC(C)(C)NC(=O)/C(=C\Sc1ccccc1)c1ccc2c(c1)OCO2` gave a TGI of over 100 µM.

With `COC(=O)[C@]12CC[C@H]3CN(C(=O)OCc4ccccc4)[C@H]([C@H]31)[C@H](c1ccco1)N2S(=O)(=O)c1ccc(C)cc1`, the TGI came to 40.4 µM.

On to `O=C1C[C@H](Sc2ccccc2)C2(OCCO2)[C@@H](Sc2ccccc2)C1`, for which the TGI was 7.94 µM.

With `CCCNC(=O)CCC(C)[C@H]1CCC2C3C(C[C@H](OC(C)=O)[C@@]21C)[C@@]1(C)CCC2(C[C@H]1C[C@H]3OC(C)=O)OOC1(CCC(C)CC1)OO2` (stereo not given in full), the TGI turned out to be 18.5 µM.

In turn, `CCN(C(=S)N[C@@H](Cc1ccccc1)C(=O)N[C@@H](CC(C)C)C(=O)OC)c1ccccc1` came in with a TGI of over 100 µM.

`CCCn1c(CN(Cc2nc3ccccc3n2CCC)Cc2nc3ccccc3n2CCC)nc2ccccc21` returned a TGI of over 30.4 µM.

In turn, `COc1cc(NS(C)(=O)=O)ccc1N1Cc2cnc3ccc4[nH]c(C)cc1c4c23` had a TGI of over 100 µM.

For the compound `CC12CC(=O)C3C(C(=O)C1)C32C` (stereo not given), the TGI is over 100 µM.

The compound `CC(=O)N/N=C1\NC(=O)C[C@H]2[C@@H]3CC=C4C[C@@H](OC(C)=O)CC[C@]4(C)[C@H]3CC[C@]12C` gave a TGI of over 100 µM.

`C=C[C@@H]1C(CO)=CCC2[C@H]1CCC1C(C)(C)C(=O)CC[C@]21C` (stereo not given in full) returned a TGI of over 100 µM.

As for `COc1ccc2cc3c4cc5c(cc4cc[n+]3cc2c1OC)OCO5`, the TGI came out at 21.4 µM.

`C/C(CC1C2CCCC1C2)=N\NC(N)=O` (stereo not given) showed a TGI of over 100 µM.
